Measured values taken from ChEMBL document CHEMBL1136327, “Synthesis of a highly active new anti-HIV agent 2',3'-didehydro-3'-deoxy-4'-ethynylthymidine” (Bioorg Med Chem Lett, 2003).

Assays:
[1] = test system: Human immunodeficiency virus 1; test: Inhibitory activity against HIV-1 IIIB to achieve 50% protection of MT-2 cells; type: functional, organism-based; conditions: Human immunodeficiency virus 1, MT2
MT2 = test: Cytotoxic concentration required to reduce the viability of mock-infected MT-2 cells by 50%; type: functional; conditions: Homo sapiens

Compound | IC50 [1] | CC50 (MT2)
Cc1cn([C@H]2C=C[C@@H](CO)O2)c(=O)[nH]c1=O [STAVUDINE] | 2.8 µM | 100 µM
Cc1cn([C@H]2C=C[C@@](C)(CO)O2)c(=O)[nH]c1=O | > 100 µM | > 100 µM
C#C[C@@]1(CO)C=C[C@H](n2cc(C)c(=O)[nH]c2=O)O1 [CENSAVUDINE] | 0.2 µM | > 100 µM
C=C[C@@]1(CO)C=C[C@H](n2cc(C)c(=O)[nH]c2=O)O1 | > 100 µM | > 100 µM
